# Results published in patent US11917995B2, “Fungicidal compositions of mefentrifluconazole” (BASF AGRO B.V., priority 2018, dated 2024).
# Key:
# Format in all cases: cell-based
# [1] = tested on: Colletotrichum orbicularum; assay: Microtiterplate test: activity against Colletotrichum orbicularum (Collla); conditions: single active compound, 7 days after inoculation
# Experimental: (§1) The visually determined percentages of infected leaf areas are converted into efficacies in % of the untreated control.
# (§2) The efficacy (E) is calculated as follows using Abbot's formula: E=(1−α/β·100 • α corresponds to the fungicidal infection of the treated plants in % and • β corresponds to the fungicidal infection of the untreated (control) plants in %
# (§3) An efficacy of 0 means that the infection level of the treated plants corresponds to that of the untreated control plants; an efficacy of 100 means that the treated plants were not infected. The expected efficacies of active compound combinations may be determined using Colby's formula (Colby, S. R. “Calculating synergistic and antagonistic responses of herbicide combinations”, Weeds, 15, pp. 20-22, 1967) and compared with the observed efficacies.
# (§4) Colby's formula: E=x+y−x·y/100 • E expected efficacy, expressed in % of the untreated control, when using the mixture of the active compounds A and B at the concentrations a and b • x efficacy, expressed in % of the untreated control, when using the active compound A at the concentration a • y efficacy, expressed in % of the untreated control, when using the active compound B at the concentration b.
# (§5) The active compounds were formulated separately as a stock solution having a concentration of 10000 ppm in dimethyl sulfoxide.
# (§6) The stock solutions were mixed according to the ratio, pipetted onto a micro titer plate(MTP) and diluted with water to the stated concentrations. Spores of the respective pathogen in an aqueous biomalt or yeast-bactopeptone-glycerine solution were then added. The plates were placed in a water vapor-saturated chamber at a temperature of 18° C. Using an absorption photometer, the MTPs were measured at 405 nm 7 days after the inoculation.
# (§7) The measured parameters were compared to the growth of the active compound-free control variant (100%) and the fungus-free and active compound-free blank value to determine the relative growth in % of the pathogens in the respective active compounds.
# [2] = tested on: Colletotrichum truncatum; assay: Microtiterplate test: activity against Colletotrichum truncatum (Colldu); conditions: single active compound, 7 days after inoculation
# Experimental: as §1, §2, §3, §4, §5, §6, §7
# [3] = tested on: Septoria tritici; assay: Microtest: activity against leaf blotch on wheat caused by Septoria tritici (Septtr); conditions: single active compound, 0.001 ppm; 7 days after inoculation
# Experimental: as §1, §2
# (§8) An efficacy of 0 means that the infection level of the treated plants corresponds to that of the untreated control plants; an efficacy of 100 means that the treated plants were not infected. The expected efficacies of active compound combinations may be determined using Colby's formula (Colby, S. R. “Calculating synergistic and antagonistic responses of herbicide combinations”, Weeds, 15, pp. 20-22, 1967) and compared with the observed efficacies. […]
# The stock solutions were mixed according to the ratio, pipetted onto a micro titer plate (MTP) and diluted with water to the stated concentrations. […] Using an absorption photometer, the MTPs were measured at 405 nm 7 days after the inoculation.
# as §7
# [4] = tested on: Sclerotinia sclerotiorum; assay: Microtiterplate test: activity against Sclerotinia sclerotiorum (Sclesc); conditions: single active compound, 0.25 ppm; 7 days after inoculation
# Experimental: as §1, §2, §8
# The stock solutions were mixed according to the ratio, pipetted onto a micro titer plate(MTP) and diluted with water to the stated concentrations. […] Using an absorption photometer, the MTPs were measured at 405 nm 7 days after the inoculation.
# as §7
SMILES,Observed efficacy ([1]; 0.25 ppm),Observed efficacy ([2]; 4 ppm),Observed efficacy [3],Observed efficacy [4],Observed efficacy ([1]; 1 ppm),Observed efficacy ([2]; 0.063 ppm),Observed efficacy ([2]; 0.25 ppm),Observed efficacy ([2]; 1 ppm)
"CCN(C)C=Nc1cc(C)c(Oc2ccccc2)cc1C [II-3, N′-(2,5-dimethyl-4-phenoxy-phenyl)-N-ethyl-N-methyl-formamidine]",19%,16%,5%,11%,–,–,–,–
"CC(O)(Cn1cncn1)c1ccc(Oc2ccc(Cl)cc2)cc1C(F)(F)F (stereo not drawn) [Mefentrifluconazole, mefentrifluconazole]",7%,28%,0%,1%,25%,0%,8%,18%
